Data: patent publication US9023789B2, “Amylin analogs and pharmaceutical compositions thereof” (Novo Nordisk A/S, priority 2012, dated 2015)
Converted amounts (≈) assume the structure as drawn. Read-outs that look alike come from different tables or passages of the source. Numbered stars: 1 amine (or outer) side, 2 acyl side, 3 side chain; on linkers, the order of the positions; unused ones are H or OH. Bridge positions count the residues as written; N and C are the ends. Peptide text beside a SMILES is read from it. * marks the point of attachment. C20 diacid = O=C(O)CCCCCCCCCCCCCCCCCCC(=O)*; γGlu = O=C(O)[C@H](CCC(=O)[*:2])N[*:1]

What was measured:
[1] = biological target: T1, human amylin receptor (membranes from Amylin 3(a)/CRE-luc cells) (Homo sapiens, UniProt O60896+P30988); experiment: ASSAY (V) binding to the human amylin receptor (SPA, 125I-rat amylin);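 note: competition binding of cell membranes (35 ng/µL) mixed with SPA beads in 384-well plates at 40 µL total volume, read by scintillation counting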
T1 construct: expressed in transfected cells
T1 sequence (P30988 25-474): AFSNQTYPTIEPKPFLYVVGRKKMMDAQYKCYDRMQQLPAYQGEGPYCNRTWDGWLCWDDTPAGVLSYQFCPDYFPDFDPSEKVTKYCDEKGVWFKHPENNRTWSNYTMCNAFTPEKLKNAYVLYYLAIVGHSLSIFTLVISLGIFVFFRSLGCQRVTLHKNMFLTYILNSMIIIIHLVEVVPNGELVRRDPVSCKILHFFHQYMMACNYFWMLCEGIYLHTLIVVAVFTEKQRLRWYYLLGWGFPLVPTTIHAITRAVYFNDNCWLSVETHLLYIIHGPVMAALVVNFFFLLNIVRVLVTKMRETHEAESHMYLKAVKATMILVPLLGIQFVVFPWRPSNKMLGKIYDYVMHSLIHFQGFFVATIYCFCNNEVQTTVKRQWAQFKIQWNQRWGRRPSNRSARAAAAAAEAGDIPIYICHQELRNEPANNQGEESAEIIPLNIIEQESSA
T1 sequence (O60896 24-148 partner): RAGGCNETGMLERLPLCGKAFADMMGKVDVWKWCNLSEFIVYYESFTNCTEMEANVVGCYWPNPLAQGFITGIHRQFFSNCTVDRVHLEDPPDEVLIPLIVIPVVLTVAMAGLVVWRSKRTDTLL

rat calcitonin receptor = biological target: T2, rat calcitonin receptor (Rattus norvegicus, UniProt P32214); experiment: ASSAY (VIII) binding to the rat calcitonin receptor; conditions: Table 7, read-out: rCTR bind IC50
T2 construct: expressed in transfected cells; host or cells: BHK tk'ts 13 (transient, FuGENE 6), membranes
T2 sequence (P32214 25-479 isoform P32214-2 limits assumed): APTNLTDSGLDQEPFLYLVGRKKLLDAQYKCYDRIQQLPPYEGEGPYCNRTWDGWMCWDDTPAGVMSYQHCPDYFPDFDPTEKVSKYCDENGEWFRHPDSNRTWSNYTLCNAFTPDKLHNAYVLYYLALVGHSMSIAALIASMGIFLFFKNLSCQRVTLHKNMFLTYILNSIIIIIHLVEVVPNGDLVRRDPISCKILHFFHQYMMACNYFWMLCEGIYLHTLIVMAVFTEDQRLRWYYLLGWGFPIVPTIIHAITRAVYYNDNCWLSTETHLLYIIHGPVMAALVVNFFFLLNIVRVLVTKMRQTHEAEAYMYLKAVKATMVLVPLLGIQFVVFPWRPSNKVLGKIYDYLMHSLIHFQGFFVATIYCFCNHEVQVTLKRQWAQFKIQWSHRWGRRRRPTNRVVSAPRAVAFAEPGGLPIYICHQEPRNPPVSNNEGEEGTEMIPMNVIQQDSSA
Procedure, shortened: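 Cell membranes for binding came from BHK tk′ts 13 cells harvested approximately 48 hours after transient transfection with the rat receptor.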

[2] = biological target: T3, rat amylin receptor (rat calcitonin receptor + rat RAMP 3) (Rattus norvegicus, UniProt P32214+Q9JJ73); experiment: ASSAY (VI) binding to the rat amylin receptor; conditions: for IC50: binding to rat amylin receptor, read-out: rAmylin-R bind IC50
T3 construct: expressed in transfected cells; host or cells: BHK tk'ts 13 (transient, FuGENE 6), membranes
T3 sequence (P32214 25-479 isoform P32214-2 limits assumed): T2 sequence (P32214 25-479 isoform P32214-2 limits assumed)
T3 sequence (Q9JJ73 23-147 partner): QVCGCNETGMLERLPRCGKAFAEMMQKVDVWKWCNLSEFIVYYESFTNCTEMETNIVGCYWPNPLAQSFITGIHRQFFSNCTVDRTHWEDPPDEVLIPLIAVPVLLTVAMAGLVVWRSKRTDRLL
Procedure, shortened: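 The cell-membrane assay assessed binding at the rat amylin receptor. BHK tk′ts 13 cells were transfected transiently with rat calcitonin receptor, with FuGENE® 6 (Roche) as the transfection reagent, used per the manufacturer's recommendations. Approximately 48 hours after transfection the cells were harvested, and membranes were prepared for measuring binding.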

[3] = ASSAY (IV) determination of solubility; format: physicochemical
Procedure, shortened: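 Samples of polypeptide, prepared from a water stock at […] and diluted 1:1 into 100 mM buffers spanning pH 3.0 to 8.0, stood 18 hours at room temperature. Polypeptide concentration was then determined by UPLC following centrifugation.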

[4] = Table 5, selectivity, hCTR bind IC50 / hAmylin-R bind IC50
[5] = Table 5a, selectivity, hCTR bind IC50 / hAmylin-R bind IC50
[6] = Table 5b, selectivity, hCTR bind IC50 / hAmylin-R bind IC50
[7] = Table 5c, selectivity, hCTR bind IC50 / hAmylin-R bind IC50
[8] = Table 7, human binding selectivity, included for comparison
[9] = Table 7a (preferred compounds), human binding selectivity, included for comparison
[10] = ratio of human calcitonin receptor binding IC50 to human amylin receptor binding IC50
[11] = Table 7, rat binding selectivity, rCTR IC50 / rAmylin-R IC50
[12] = Table 7a (preferred compounds), rat binding selectivity, rCTR IC50 / rAmylin-R IC50
[13] = ratio of rCTR bind IC50 to rAmylin-R bind IC50
[14] = bistrispropane buffer, pH 6.5, read-out: Solubility pH 6.5 Concentration
[15] = bistrispropane buffer, pH 7.5, read-out: Solubility pH 7.5 Concentration
[16] = bistrispropane buffer, pH 6.0, read-out: Solubility pH 6.0 Concentration
[17] = bistrispropane buffer, pH 7.0, read-out: Solubility pH 7.0 Concentration
[18] = bistrispropane buffer, pH 8.0, read-out: Solubility pH 8.0 Concentration
[19] = glycylglycine buffer, pH 3.0, read-out: Solubility pH 3.0 Concentration
[20] = glycylglycine buffer, pH 4.0, read-out: Solubility pH 4.0 Concentration

Compound | Ratio hCT/hAmylin binding [1, 4] | Ratio hCT/hAmylin binding [1, 5] | Ratio hCT/hAmylin binding [1, 6] | Ratio hCT/hAmylin binding [1, 7] | Ratio hCT/hAmylin binding [1, 8] | Ratio hCT/hAmylin binding [1, 9] | Ratio hCT/hAmylin binding [1, 10] | IC50 (rat calcitonin receptor) [nM] | IC50 ([2]; Table 7) [nM] | Ratio rCT/rAmylin binding [2, 11] | Ratio rCT/rAmylin binding [2, 12] | Ratio rCT/rAmylin binding [2, 13] | solubility at 18 h [3, 14] [µM] | solubility at 18 h [3, 15] [µM] | solubility at 18 h [3, 16] [µM] | solubility at 18 h [3, 17] [µM] | solubility at 18 h [3, 18] [µM] | solubility at 18 h [3, 19] [µM] | solubility at 18 h [3, 20] [µM] | also measured
CC[C@H](C)[C@H](NC(=O)[C@H](C)NC(=O)CNC(=O)[C@H](Cc1ccccc1)NC(=O)[C@H](CC(N)=O)NC(=O)[C@@H]1CCCN1C(=O)[C@H](CO)NC(=O)[C@H](CO)NC(=O)[C@H](Cc1c[nH]cn1)NC(=O)[C@H](CCCNC(=N)N)NC(=O)[C@H](CC(C)C)NC(=O)[C@H](Cc1ccccc1)NC(=O)[C@H](Cc1c[nH]cn1)NC(=O)[C@H](C)NC(=O)[C@H](CC(C)C)NC(=O)[C@H](CCCNC(=N)N)NC(=O)[C@H](CCC(N)=O)NC(=O)[C@@H](NC(=O)[C@H](C)NC(=O)[C@@H]1CSSC[C@H](NC(=O)[C@H](CCCNC(=N)N)NC(=O)CNC(=O)CC[C@H](NC(=O)CCCCCCCCCCCCCCCCCCC(=O)O)C(=O)O)C(=O)N[C@@H](CC(N)=O)C(=O)N[C@@H]([C@@H](C)O)C(=O)N[C@@H](C)C(=O)N[C@@H]([C@@H](C)O)C(=O)N1)[C@@H](C)O)C(=O)N1CCC[C@H]1C(=O)N[C@@H](CO)C(=O)N[C@@H](CO)C(=O)N[C@H](C(=O)N[C@@H](CC(N)=O)C(=O)N[C@H](C(=O)NCC(=O)N[C@@H](CO)C(=O)N[C@@H](CC(N)=O)C(=O)N[C@H](C(=O)N[C@@H](Cc1ccc(O)cc1)C(N)=O)[C@@H](C)O)C(C)C)[C@@H](C)O [Example 99] ({C20 diacid-γGlu}-GRCNTATCATQRLAHFLRHSSPNFGAIPSSTNVGSNTY-NH2; disulfide 3-8) | 100.4 | 100.4 | 100.4 | 100.4 | 100.4 | 100.4 | 100.4 | 216 | 2.7 | 79.8 | 79.8 | 79.8 | ≥ 200 | 94 (≈ 422 µg/mL) | ≥ 200 | 154 (≈ 691 µg/mL) | 120 (≈ 539 µg/mL) | ≥ 200 | ≥ 200 | solubility at 18 h ([3]; glycylglycine buffer, pH 5.0, read-out: Solubility pH 5.0 Concentration): ≥ 200 µM
CC[C@H](C)[C@H](NC(=O)[C@H](C)NC(=O)CNC(=O)[C@H](Cc1ccccc1)NC(=O)[C@H](CC(N)=O)NC(=O)[C@@H]1CCCN1C(=O)[C@H](CO)NC(=O)[C@H](CO)NC(=O)[C@H](Cc1c[nH]cn1)NC(=O)[C@H](CCCNC(=N)N)NC(=O)[C@H](CC(C)C)NC(=O)[C@H](Cc1ccccc1)NC(=O)[C@H](Cc1c[nH]cn1)NC(=O)[C@H](C)NC(=O)[C@H](CC(C)C)NC(=O)[C@H](CCCNC(=N)N)NC(=O)[C@H](CCC(N)=O)NC(=O)[C@@H](NC(=O)[C@H](C)NC(=O)[C@@H]1CSSC[C@H](NC(=O)[C@H](CCCNC(=N)N)NC(=O)CNC(=O)CC[C@H](NC(=O)CCCCCCCCCCCCCCCCCCC(=O)O)C(=O)O)C(=O)N[C@@H](CC(N)=O)C(=O)N[C@@H]([C@@H](C)O)C(=O)N[C@@H](C)C(=O)N[C@@H]([C@@H](C)O)C(=O)N1)[C@@H](C)O)C(=O)N1CCC[C@H]1C(=O)N[C@@H](CO)C(=O)N[C@@H](CO)C(=O)N[C@H](C(=O)N[C@@H](CC(N)=O)C(=O)N[C@H](C(=O)NCC(=O)N[C@@H](Cc1c[nH]cn1)C(=O)N[C@@H](CC(N)=O)C(=O)N[C@H](C(=O)N[C@@H](Cc1ccc(O)cc1)C(N)=O)[C@@H](C)O)C(C)C)[C@@H](C)O [Example 100] ({C20 diacid-γGlu}-GRCNTATCATQRLAHFLRHSSPNFGAIPSSTNVGHNTY-NH2; disulfide 3-8 (inferred)) | 65.3 | 65.3 | 65.3 | 65.3 | 65.3 | 65.3 | 65.3 | 311 | 11.2 | 27.7 | 27.7 | 27.7 | ≥ 200 | 26 (≈ 118 µg/mL) | ≥ 200 | 109 (≈ 495 µg/mL) | 31 (≈ 141 µg/mL) | ≥ 200 | ≥ 200 | Solubility pH 6.5 Concentration ([3]; pH 6.5 (Table 9a)): ≧200 μM
